The data set in a line: Thioflavin T (ThT) fibrillation assay for physical stability. Type of data set: physicochemical. Particulars: 250 μM in 10 mM HEPES buffer, pH 7.5, 37° C., shaking 960 rpm. In a few lines: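 Peptide at 250 μM in 10 mM HEPES pH 7.5 with 1 μM ThT, at 37° C with 960 rpm orbital shaking. Fluorescence (ex 444/em 485 nm) read every 20 min after 10 min pre-incubation; sigmoidal fit gives lag time (t0−2τ) and kapp (1/τ). Recovery is RP-HPLC peptide in the centrifuged, 0.22 μm-filtered supernatant as % of initial.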

SMILES strings stand for the structures. Numbered stars: 1 amine (or outer) side, 2 acyl side, 3 side chain; on linkers, the order of the positions; unused ones are H or OH. Square brackets hold non-standard residues; d marks the D form. Side chains are listed from the residue outwards. Peptide text beside a SMILES is read from it. * marks the point of attachment. C18 diacid = O=C(O)CCCCCCCCCCCCCCCCC(=O)*; γGlu = O=C(O)[C@H](CCC(=O)[*:2])N[*:1]; AEEA = NCCOCCOCC(=O)O; Aib = CC(C)(N)C(=O)O

`CC(C)C[C@H](NC(=O)[C@H](Cc1ccc(O)cc1)NC(=O)[C@H](CCCCN)NC(=O)[C@H](CO)NC(=O)[C@H](CC(C)C)NC(=O)[C@H](CC(=O)O)NC(=O)[C@H](CO)NC(=O)[C@@H](NC(=O)[C@H](Cc1ccccc1)NC(=O)[C@@H](NC(=O)CNC(=O)[C@H](CCC(N)=O)NC(=O)C(C)(C)NC(=O)[C@@H](N)Cc1c[nH]cn1)[C@@H](C)O)[C@@H](C)O)C(=O)N[C@@H](CC(=O)O)C(=O)N[C@@H](CCCCNC(=O)CC[C@H](NC(=O)CC[C@H](NC(=O)COCCOCCNC(=O)COCCOCCNC(=O)CC[C@H](NC(=O)CCCCCCCCCCCCCCCCC(=O)O)C(=O)O)C(=O)O)C(=O)O)C(=O)N[C@@H](CCCNC(=N)N)C(=O)N[C@@H](CCCNC(=N)N)C(=O)N[C@@H](C)C(=O)N[C@@H](CCCNC(=N)N)C(=O)N[C@@H](CCC(=O)O)C(=O)N[C@@H](Cc1ccccc1)C(=O)N[C@H](C(=O)N[C@@H](CCC(N)=O)C(=O)N[C@@H](Cc1c[nH]c2ccccc12)C(=O)N[C@@H](CC(C)C)C(=O)N[C@@H](CC(C)C)C(=O)N[C@@H](CC(N)=O)C(=O)N[C@H](C(N)=O)[C@@H](C)O)C(C)C` [Example 10, N^ε16-[(4S)-4-carboxy-4-[[(4S)-4-carboxy-4-[[2-[2-[2-[[2-[2-[2-[[(4S)-4-carboxy-4-(17-carboxyheptadecanoylamino)butanoyl]amino]ethoxy]ethoxy]acetyl]amino]ethoxy]ethoxy]acetyl]amino]butanoyl]amino]butanoyl]-[Aib2,Leu10,Lys16,Arg20,Glu21,Leu27]-Glucagon amide] (H-H[Aib]QGTFTSDLSKYLDK([γGlu-γGlu-AEEA-AEEA-γGlu-C18 diacid])RRAREFVQWLLNT-NH2; N-terminus assumed): the THT assay Lag time (Ex. 76) was 7 h.
To `CC(C)C[C@H](NC(=O)[C@H](Cc1c[nH]c2ccccc12)NC(=O)[C@H](C)NC(=O)[C@@H](NC(=O)[C@H](Cc1ccccc1)NC(=O)[C@H](CCC(=O)O)NC(=O)[C@H](CCCNC(=N)N)NC(=O)[C@H](C)NC(=O)[C@H](CCCNC(=N)N)NC(=O)[C@H](CCCNC(=N)N)NC(=O)[C@H](CCCCNC(=O)CC[C@H](NC(=O)COCCOCCNC(=O)COCCOCCNC(=O)CC[C@H](NC(=O)CC[C@H](NC(=O)CCCCCCCCCCCCCCCCC(=O)O)C(=O)O)C(=O)O)C(=O)O)NC(=O)[C@H](CC(=O)O)NC(=O)[C@H](CC(C)C)NC(=O)[C@H](Cc1ccc(O)cc1)NC(=O)[C@H](CCCCN)NC(=O)[C@H](CO)NC(=O)[C@H](CC(C)C)NC(=O)[C@H](CC(=O)O)NC(=O)[C@H](CO)NC(=O)[C@@H](NC(=O)[C@H](Cc1ccccc1)NC(=O)[C@@H](NC(=O)CNC(=O)[C@H](CCC(N)=O)NC(=O)C(C)(C)NC(=O)[C@@H](N)Cc1c[nH]cn1)[C@@H](C)O)[C@@H](C)O)C(C)C)C(=O)N[C@@H](CC(C)C)C(=O)N[C@@H](CC(N)=O)C(=O)N[C@H](C(N)=O)[C@@H](C)O` [Example 19, N^ε29-[(4S)-4-carboxy-4-[[2-[2-[2-[[2-[2-[2-[[(4S)-4-carboxy-4-[[(4S)-4-carboxy-4-(17-carboxyheptadecanoylamino)butanoyl]amino]butanoyl]amino]ethoxy]ethoxy]acetyl]amino]ethoxy]ethoxy]acetyl]amino]butanoyl]-[Aib2,Leu10,Lys16,Arg20,Glu21,Ala24,Leu27]-Glucagon amide] (H-H[Aib]QGTFTSDLSKYLDK([γGlu-AEEA-AEEA-γGlu-γGlu-C18 diacid])RRAREFVAWLLNT-NH2; N-terminus assumed) belongs 6.7 h.
`CC(C)C[C@H](NC(=O)[C@H](Cc1ccc(O)cc1)NC(=O)[C@H](CCCCN)NC(=O)[C@H](CO)NC(=O)[C@H](CC(C)C)NC(=O)[C@H](CC(=O)O)NC(=O)[C@H](CO)NC(=O)[C@@H](NC(=O)[C@H](Cc1ccccc1)NC(=O)[C@@H](NC(=O)CNC(=O)[C@H](CCC(N)=O)NC(=O)C(C)(C)NC(=O)[C@@H](N)Cc1c[nH]cn1)[C@@H](C)O)[C@@H](C)O)C(=O)N[C@@H](CCC(=O)O)C(=O)N[C@@H](CO)C(=O)N[C@@H](CCCNC(=N)N)C(=O)N[C@@H](CCCNC(=N)N)C(=O)N[C@@H](C)C(=O)N[C@@H](CCCNC(=N)N)C(=O)N[C@@H](CCC(=O)O)C(=O)N[C@@H](Cc1ccccc1)C(=O)N[C@H](C(=O)N[C@@H](CCC(N)=O)C(=O)N[C@@H](Cc1c[nH]c2ccccc12)C(=O)N[C@@H](CC(C)C)C(=O)N[C@@H](CC(C)C)C(=O)N[C@@H](CCCCNC(=O)CC[C@H](NC(=O)COCCOCCNC(=O)COCCOCCNC(=O)CC[C@H](NC(=O)CC[C@H](NC(=O)CCCCCCCCCCCCCCCCC(=O)O)C(=O)O)C(=O)O)C(=O)O)C(=O)N[C@H](C(N)=O)[C@@H](C)O)C(C)C` [Example 20, N^ε29-[(4S)-4-carboxy-4-[[2-[2-[2-[[2-[2-[2-[[(4S)-4-carboxy-4-[[(4S)-4-carboxy-4-(17-carboxyheptadecanoylamino)butanoyl]amino]butanoyl]amino]ethoxy]ethoxy]acetyl]amino]ethoxy]ethoxy]acetyl]amino]butanoyl]-[Aib2,Leu10,Glu15,Arg20,Glu21,Leu27,Lys28]-Glucagon amide] (H-H[Aib]QGTFTSDLSKYLESRRAREFVQWLLK([γGlu-AEEA-AEEA-γGlu-γGlu-C18 diacid])T-NH2; N-terminus assumed) came in with a THT assay Lag time (Ex. 76) of 6 h.
To `CC(C)C[C@H](NC(=O)[C@H](CC(C)C)NC(=O)[C@H](Cc1c[nH]c2ccccc12)NC(=O)[C@H](CCC(N)=O)NC(=O)[C@@H](NC(=O)[C@H](Cc1ccccc1)NC(=O)[C@H](CCC(=O)O)NC(=O)[C@H](CCCNC(=N)N)NC(=O)[C@H](C)NC(=O)[C@H](CCCNC(=N)N)NC(=O)[C@H](CCCNC(=N)N)NC(=O)[C@H](CO)NC(=O)[C@H](CCC(=O)O)NC(=O)[C@H](CC(C)C)NC(=O)[C@H](Cc1ccc(O)cc1)NC(=O)[C@H](CCCCN)NC(=O)[C@H](CO)NC(=O)[C@H](CC(C)C)NC(=O)[C@H](CC(=O)O)NC(=O)[C@H](CO)NC(=O)[C@@H](NC(=O)[C@H](Cc1ccccc1)NC(=O)[C@@H](NC(=O)CNC(=O)[C@H](CCC(N)=O)NC(=O)C(C)(C)NC(=O)[C@@H](N)Cc1c[nH]cn1)[C@@H](C)O)[C@@H](C)O)C(C)C)C(=O)N[C@@H](CC(N)=O)C(=O)N[C@@H](CCCCNC(=O)CC[C@H](NC(=O)COCCOCCNC(=O)COCCOCCNC(=O)CC[C@H](NC(=O)CC[C@H](NC(=O)CCCCCCCCCCCCCCCCC(=O)O)C(=O)O)C(=O)O)C(=O)O)C(N)=O` [Example 21, N^ε29-[(4S)-4-carboxy-4-[[2-[2-[2-[[2-[2-[2-[[(4S)-4-carboxy-4-[[(4S)-4-carboxy-4-(17-carboxyheptadecanoylamino)butanoyl]amino]butanoyl]amino]ethoxy]ethoxy]acetyl]amino]ethoxy]ethoxy]acetyl]amino]butanoyl]-[Aib2,Leu10,Glu15,Arg20,Glu21,Leu27,Lys29]-Glucagon amide] (H-H[Aib]QGTFTSDLSKYLESRRAREFVQWLLNK([γGlu-AEEA-AEEA-γGlu-γGlu-C18 diacid])-NH2; N-terminus assumed) belongs 18 h.
To `CC(C)C[C@H](NC(=O)[C@H](Cc1ccc(O)cc1)NC(=O)[C@H](CCCCN)NC(=O)[C@H](CO)NC(=O)[C@H](CC(C)C)NC(=O)[C@H](CC(=O)O)NC(=O)[C@H](CO)NC(=O)[C@@H](NC(=O)[C@H](Cc1ccccc1)NC(=O)[C@@H](NC(=O)CNC(=O)[C@H](Cc1c[nH]cn1)NC(=O)C(C)(C)NC(=O)[C@@H](N)Cc1c[nH]cn1)[C@@H](C)O)[C@@H](C)O)C(=O)N[C@@H](CCC(=O)O)C(=O)N[C@@H](CO)C(=O)N[C@@H](CCCNC(=N)N)C(=O)N[C@@H](CCCNC(=N)N)C(=O)N[C@@H](C)C(=O)N[C@@H](CCCNC(=N)N)C(=O)N[C@@H](CCC(=O)O)C(=O)N[C@@H](Cc1ccccc1)C(=O)N[C@H](C(=O)N[C@@H](CCC(N)=O)C(=O)N[C@@H](Cc1c[nH]c2ccccc12)C(=O)N[C@@H](CC(C)C)C(=O)N[C@@H](CC(C)C)C(=O)N[C@@H](CCCCNC(=O)CC[C@H](NC(=O)COCCOCCNC(=O)COCCOCCNC(=O)CC[C@H](NC(=O)CC[C@H](NC(=O)CCCCCCCCCCCCCCCCC(=O)O)C(=O)O)C(=O)O)C(=O)O)C(=O)N[C@H](C(N)=O)[C@@H](C)O)C(C)C` [Example 30, N^ε28-[(4S)-4-carboxy-4-[[2-[2-[2-[[2-[2-[2-[[(4S)-4-carboxy-4-[[(4S)-4-carboxy-4-(17-carboxyheptadecanoylamino)butanoyl]amino]butanoyl]amino]ethoxy]ethoxy]acetyl]amino]ethoxy]ethoxy]acetyl]amino]butanoyl]-[Aib2,His3,Leu10,Glu15,Arg20,Glu21,Leu27,Lys28]-Glucagon amide] (H-H[Aib]HGTFTSDLSKYLESRRAREFVQWLLK([γGlu-AEEA-AEEA-γGlu-γGlu-C18 diacid])T-NH2; N-terminus assumed) belongs 45 h.
